Assay results reported in patent publication US10857105B2, “Compounds and compositions for intracellular delivery of therapeutic agents” (ModernaTX, Inc., priority 2017, dated 2020).

Tests used:
[1] = Encapsulation efficiency of RNA in nanoparticle compositions (RIBOGREEN assay); format: physicochemical; conditions: Table 1A; lipid:DSPC:cholesterol:PEG-DMG 50:10:38.5:1.5 mol %
Description: For nanoparticle compositions including an RNA, a QUANT-IT™ RIBOGREEN® RNA assay (Invitrogen Corporation Carlsbad, Calif.) can be used to evaluate the encapsulation of an RNA by the nanoparticle composition. The samples are diluted to a concentration of approximately 5 μg/mL, in a TE buffer solution (10 mM Tris-HCl, 1 mM EDTA, pH 7.5). 50 μL of the diluted samples are transferred to a polystyrene 96 well plate and either 50 μL of TE buffer or 50 μL of a 2% Triton X-100 solution is added to the wells. The plate is incubated at a temperature of 37° C. for 15 minutes. The RIBOGREEN® reagent is diluted 1:100 in TE buffer, and 100 μL of this solution is added to each well. The fluorescence intensity can be measured using a fluorescence plate reader (Wallac Victor 1420 Multilabel Counter; Perkin Elmer, Waltham, Mass.) at an excitation wavelength of, for example, about 480 nm and an emission wavelength of, for example, about 520 nm. The fluorescence values of the reagent blank are subtracted from that of each of the samples and the percentage of free RNA is determined by dividing the fluorescence intensity of the intact sample (without addition of Triton X-100) by the fluorescence value of the disrupted sample (caused by the addition of Triton X-100).
(§1) Initial studies were performed to compare the delivery efficiency of nanoparticle compositions including various compounds according to Formula (I), (IA), (IB), (II), (IIa), (IIb), (IIc), (IId), (IIe), (IIf), (IIg), or (III). The cationic lipid MC3 is a current standard in the art. Accordingly, the standard MC3 formulation including about 50 mol % MC3, about 10 mol % DSPC, about 38.5 mol % cholesterol, and about 1.5 mol % PEG-DMG was used as a basis for this study. Nanoparticle compositions including DSPC as a phospholipid, cholesterol as a structural lipid, PEG-DMG as a PEG lipid, an RNA, and a compound according to Formula (I), (IA), (IB), (II), (IIa), (IIb), (IIc), (IId), (IIe), (IIf), (IIg), or (III) selected from Compounds 1-159, 168-170, and 173-175 were prepared according to or via methods similar to those described in Examples 1 and 2. The ratios of the lipids were 50:10:38.5:1.5 mol % for the lipid according to Formula (I), (IA), (IB), (II), (IIa), (IIb), (IIc), (IId), (IIe), (IIf), (IIg), or (III):DSPC:cholesterol:PEG-DMG. The RNA used was an mRNA encoding luciferase (Luc) or hEPO, wherein each uridine was replaced N1-methyl pseudouridine. Tables 1A-1E summarize the content and characteristics of the formulations.

[2] = Particle size and polydispersity index of nanoparticle compositions (Zetasizer Nano ZS); format: physicochemical; conditions: Table 1A; lipid:DSPC:cholesterol:PEG-DMG 50:10:38.5:1.5 mol %
Description: A Zetasizer Nano ZS (Malvern Instruments Ltd, Malvern, Worcestershire, UK) can be used to determine the particle size, the polydispersity index (PDI) and the zeta potential of the nanoparticle compositions in 1×PBS in determining particle size and 15 mM PBS in determining zeta potential.
as §1

[3] = system: modified luciferase; experiment: Luciferase expression in liver, lung, spleen and femur 6 hours after intravenous administration to mice; format: in vivo; conditions: 6 hours after intravenous 0.5 mpk, mice
Description: The efficacy of the nanoparticle compositions presented in Table 1A was further evaluated by measuring the expression of modified luciferase in the liver, lung, spleen, and femur upon administration of a given composition. Formulations were administered intravenously to mice (n=3) at a dosage of 0.5 mpk and bioluminescence measured after 6 hours. The standard MC3 formulation and a PBS control were also tested. […] Flux in the liver was lowest for compositions including Compounds 58, 59, 137, and 141. Flux in the spleen was highest for compositions including Compounds 4, 7, 33, 34, 48, 53, 108, 129, 130, and 148, and lowest for compositions including Compounds 9, 59, 124, and 141.

[4] = system: luciferase (Luc) mRNA; experiment: Luciferase expression (whole body bioluminescence) after intravenous administration to mice; format: in vivo; conditions: i.v. administration (Table 3C)
Description: In order to monitor how effectively various nanoparticle compositions deliver therapeutic and/or prophylactics to targeted cells, different nanparticle compositions including a particular therapeutic and/or prophylactic (for example, a modified or naturally occurring RNA such as an mRNA) are prepared and administered to rodent populations. Mice are intravenously, intramuscularly, intraarterially, or intratumorally administered a single dose including a nanoparticle composition with a formulation such as those provided in Example 3. In some instances, mice may be made to inhale doses. Dose sizes may range from 0.001 mg/kg to 10 mg/kg, where 10 mg/kg describes a dose including 10 mg of a therapeutic and/or, prophylactic in a nanoparticle composition for each 1 kg of body mass of the mouse. A control composition including PBS may also be employed.
Upon administration of nanoparticle compositions to mice, dose delivery profiles, dose responses, and toxicity of particular formulations and doses thereof can be measured by enzyme-linked immunosorbent assays (ELISA), bioluminescent imaging, or other methods. For nanoparticle compositions including mRNA, time courses of protein expression can also be evaluated. Samples collected from the rodents for evaluation may include blood, sera, and tissue (for example, muscle tissue from the site of an intramuscular injection and internal tissue); sample collection may involve sacrifice of the animals.
The efficacy of the nanoparticle compositions presented in Table 1A was evaluated with a bioluminescence study. Formulations were administered intravenously to mice (n=6) at a dosage of 0.5 mg/kg (mpk) and bioluminescence measured at 3, 6, and 24 hour time points. The standard MC3 formulation and, in some instances, a control (e.g., a PBS control) were evaluated for comparison. […] In general, flux decreased as time progressed to less than 10% of the initial flux.
The total flux (measured by area under the curve, AUC) induced by administration of a formulation including a given lipid relative to that induced by administration of a formulation including MC3 was also measured for several lipids.

SMILES	EE [1]	Size [2]	Total Flux, Liver [3]	Total Flux, Lung [3]	Total Flux, Spleen [3]	AUC [4]
CCCCCCCCC(CCCCCCCC)OC(=O)CCCCCCCN(CCO)CCCC(=O)OCCCCCCC [Compound 54, heptadecan-9-yl 8-((4-(heptyloxy)-4-oxobutyl)(2-hydroxyethyl)amino) octanoate]	96.71%	112.9 nm	5.57E+09	1.12E+07	1.64E+08	
CCCCCCCCCOC(=O)CCCCCCCN(CCO)CCCCCCCC(=O)OC(CCCCCC)CCCCCC [Compound 56, nonyl 8-((2-hydroxyethyl)(8-oxo-8-(tridecan-7-yloxy)octyl)amino) octanoate]	95.18%	112.1 nm	1.04E+09	4.62E+06	1.98E+08	
CCCCCCCCCOC(=O)CCCCCCCN(CCO)CCCCCCCC(=O)OC(CCCC)CCCC [Compound 57, nonan-5-yl 8-((2-hydroxyethyl)(8-(nonyloxy)-8-oxooctyl)amino) octanoate]	94.33%	128.4 nm	9.36E+05	3.18E+04	2.47E+06	
CCCCCCCCCOC(=O)CCCCCCCN(CCO)CCCCCCCC(=O)OC(CCC)CCC [Compound 58, heptan-4-yl 8-((2-hydroxyethyl)(8-(nonyloxy)-8-oxooctyl)amino) octanoate]	92.54%	130.8 nm	8.71E+04	1.21E+04	2.38E+05	
CCCCCCCCC(CCCCCCCC)OC(=O)CCCCCCCN(CCO)CCCCCCCC(=O)OC1CCC(CCCCC)CC1 (stereo not drawn) [Compound 66, Heptadecan-9-yl 8-((2-hydroxyethyl)(8-oxo-8-((4-pentylcyclohexyl)oxy)octyl)amino)octanoate]		76.7 nm	5.01E+09	4.20E+06	2.00E+07	6.76E+11 h*p/s
CCCCCCCCC(CCCCCCCC)OC(=O)CCCCCCCN(CCO)CCCC(=O)OC(CCCCCC)CCCCCCCC (stereo not drawn) [Compound 73, Heptadecan-9-yl 8-((2-hydroxyethyl)(4-oxo-4-(pentadecan-7-yloxy)butyl)amino)octanoate]	95.7%	59.2 nm	7.93E+08	6.17E+06	9.45E+06	
CCCCCCCCCOC(=O)CCCCCCCN(CCO)CCCCCCCC(=O)OC1CCC(CCCCC)CC1 (stereo not drawn) [Compound 79, Nonyl 8-((2-hydroxyethyl)(8-oxo-8-((4-pentylcyclohexyl)oxy)octyl)amino)octanoate]	89.1%	93.7 nm	3.15E+06	6.13E+04	6.45E+05	
CCCCCCCCCOC(=O)CCCCCCCN(CCO)CCCCCCCC(=O)OC1CCC(C2CCCCC2)CC1 (stereo not drawn) [Compound 80, [1,1′-Bi(cyclohexan)]-4-yl 8-((2-hydroxyethyl)(8-(nonyloxy)-8-oxooctyl)amino)octanoate]	90.7%	118 nm	1.09E+07	8.97E+04	4.71E+06	
CCCCCCCCCOC(=O)CCCCCCCN(CCO)CCCCCCCC(=O)OC1CCCCCCCCCCCCCC1 [Compound 81, Cyclopentadecyl 8-((2-hydroxyethyl)(8-(nonyloxy)-8-oxooctyl)amino)octanoate]	95.4%	99.2 nm	2.74E+08	6.23E+06	4.49E+07	
CCCCCCCCCOC(=O)CCCCCCCN(CCCCCCCC(=O)OC(CCCCCCCC)CCCCCCCC)CCN1CCN(C)CC1 [Compound 101, Heptadecan-9-yl 8-((2-(4-methylpiperazin-1-yl)ethyl)(8-(nonyloxy)-8-oxooctyl)amino)octanoate]		91.7 nm	1.27E+07	1.77E+05	5.60E+06	1.8E+09 h*p/s
CCCCCCCCCOC(=O)CCCCCCCN(CCO)CCCCCCCCCOP(=O)(OCCCCCCCCC)OCCCCCCCCC [Compound 127, Nonyl 8-((9-((bis(nonyloxy)phosphoryl)oxy)nonyl)(2-hydroxyethyl)amino)octanoate]	89.5%	110.4 nm	1.94E+08	5.26E+06	3.21E+08	
CCCCCCCCCCCOC(=O)CCCCCN(CCO)CCCCCCCC(=O)N(CCCCCCCC)CCCCCCCC [Compound 129, Undecyl 6-((8-(dioctylamino)-8-oxooctyl)(2-hydroxyethyl)amino)hexanoate]	77.2%	86.3 nm	6.65E+08	9.89E+06	5.09E+08	
